Results published in patent US11497796B2, “Agents directed against a cis RGMa/neogenin interaction or lipid rafts and use of the same in methods of treatment” (UNIVERSITY HEALTH NETWORK, priority 2013, dated 2022).

Legend:
4Ig-domain of DCC = experiment: AP binding assay on coated DCC-4Ig; details: closest Neogenin homologue, specificity control
Experimental: (A) Different RGMa-AP proteins were incubated on wells coated with the 4Ig 6FNIII or BSA. […] Data were average±SEM (n=3 independent experiments), *p<0.005. (B) Quantification of a binding assay where 4Ig-AP and 6FNIII-AP proteins were assayed on wells coated with proteins from different RGMa regions. […] Thus, two N-RGMa fragments were identified (N-Raft and N-RGMa77-113) that bound the 4Ig and 6FNIII domains in Neogenin, respectively. C-RGMa proteins and full length RGMa only bound 6FNIII. Data were average±SEM (n=3 independent experiments), *p<0.005. […] Quantification of a binding assay where N-RGMa-AP was assayed on wells coated with proteins DCC-4Ig and Neogenin-4Ig. In this experiment Neogenin-4Ig but not DCC-4Ig interacted with N-Raft-AP. Data were average±SEM (n=4 independent experiments), *p<0.005. (D) Cis-interaction between the 4Ig domain of Neogenin and N-Raft is required for localization of Neogenin in lipid rafts. HEK-293 cells were transfected with Neogenin and RGMa constructs. BMP2 (100 nM) was added to the medium 1 hour before cells were collected. Western blotting was performed following lipid raft fractionation. Flotillin was used as a marker for lipid raft fractions, whereas the transferrin receptor (TfR) was used as a marker for heavy membrane-fractions. Every experiment was repeated twice. […]

[1] = biological target: T1, 4Ig-domain of Neogenin (His-4Ig) (Gallus gallus, UniProt Q90610); experiment: Pull-down assay with peptide-coated beads; type: binding; details: Western blot with anti-His
T1 construct: 6-His (N); myc (C); 6-His (C); made in house
T1 sequence (Q90610 1-383): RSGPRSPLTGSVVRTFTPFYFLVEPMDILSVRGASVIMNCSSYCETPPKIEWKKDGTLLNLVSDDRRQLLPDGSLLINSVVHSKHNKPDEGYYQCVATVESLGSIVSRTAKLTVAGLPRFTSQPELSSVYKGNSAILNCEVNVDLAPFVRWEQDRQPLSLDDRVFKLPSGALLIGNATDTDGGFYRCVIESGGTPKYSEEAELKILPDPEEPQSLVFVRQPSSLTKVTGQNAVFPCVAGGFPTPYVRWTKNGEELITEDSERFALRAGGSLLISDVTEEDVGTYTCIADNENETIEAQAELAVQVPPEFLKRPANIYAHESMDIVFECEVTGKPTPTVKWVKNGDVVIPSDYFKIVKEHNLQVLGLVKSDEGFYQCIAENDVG
Experimental: (A) RGMa proteins were incubated on plates coated with 4Ig- or 6FNIII-AP. One C- and one N-RGMa domain (N-RGMa^77-113) interacted with 6FNIII. One N-RGMa domain (N-Raft) interacted with 4Ig. (B) Supernatants (Sup) from cells expressing His-6FNIII or His-4Ig, were pulled down (IP) with beads coated with N-Raft, N-RGMa^50-99, and N-inh. Western Blot was then performed with an anti-His antibody to reveal whether or not His-6FNIII or His-4Ig interacted with the coated beads. […] Data are average±SEM (n=3 independent experiments), *p<0.0001. Scale bar, 100 μm. (E) Chick brains were injected with control peptide (Ctrl; N-RGMa^50-99), 4Ig, N-Raft, or Noggin 1 day before preparing membrane fractionations. In control experiments, Neogenin localized to the Flotillin/RGMa-containing lipid raft fraction (as shown in solid lined boxes). 4Ig, N-Raft, or Noggin shifted Neogenin to heavy fractions.
Proteins were coupled to activated CNBr Sepharose beads (Pharmacia) according to supplier instructions. Supernatants from transfected cells were added to coupled beads for 2 h at room temperature (RT). Beads were then washed 6× with PBS plus 0.02% Tween 20, and SDS loading buffer was added. Samples were boiled and subjected to Western blotting.

N-Raft: peptide spanning amino acids 28-73 of RGMa (SEQ ID NO:2) (SPCKILKCNSEFWAATSGSHHLGAEETPEFCTALRAYAHCTRRTAR; N-Raft - amino acids 28-73 of RGMa)
interaction with the 4Ig-domain of DCC (4Ig-domain of DCC): No significant interaction
pull-down of 4Ig-domain by peptide-coated beads [1]: pulled down
